Measurements taken from US20260306502A1, “MITOCHONDRIAL UNCOUPLERS FOR TREATMENT OF METABOLIC DISEASES AND CANCER” (Mito Biopharma, LLC, priority 2022, published 2026).
Entries after “also recorded” stand apart in the source; their conditions may differ.

What was measured:
C2C12 cells = assay: Mitochondrial uncoupling activity by oxygen consumption rate (OCR) assay, Seahorse, in presence of oligomycin; format: cell-based, mouse; conditions: for minimal effective concentration: Mus musculus, C2C12, in the presence of oligomycin 2.5 μM, read-out: COCR-min: minimal concentration increasing OCR in the presence of oligomycin; for effect on oxygen consumption rate (OCR): in words
Summary of the method: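 Mouse C2C12 myoblasts grown in 10% FBS medium had OCR measured on Seahorse XF96/XF24 sequentially: basal, after 2.5 μM oligomycin (final), then after compound at varying concentrations. Rotenone/antimycin A confirmed mitochondrial origin. COCR-min is the minimal compound concentration inducing OCR in the presence of oligomycin.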

[1] = test system: cultured mammalian cells, the NIH-3T3 cells, C2C12 cells, and other mammalian cell lines; assay: Mitochondrial membrane potential (MMP) assay, TMRE (or DilC1(5)) staining, related to OCR induction; format: cell-based; conditions: in words; TMRE and DilC1(5) staining
Summary of the method: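 NIH-3T3, C2C12 and other mammalian cells in log phase treated with compound at various concentrations for 2 h, stained with 100 nM TMRE for 15 min, imaged by fluorescence microscopy; alternatively 50 nM DilC1(5), 15–30 min at 37 °C, far-red read. C10% TMRE = concentration leaving 10% MMP.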

[2] = test system: high-fat diet (HFD)-induced diabetic mouse model; assay: Efficacy in high-fat diet (HFD)-induced diabetic/fatty liver mouse model; format: in vivo; conditions: HFD mice, 3 weeks; for reversing fatty liver (liver steatosis, H&E histology): 5 mg/kg PO daily
Experimental: For HFD induced diabetic mouse model, C57Bl6 mice (male, n=6) were induced to obese and diabetic conditions by feeding high-fat diet (HFD, 60% fat calories, Research Diet, Inc. New Brunswick, NJ) for 3-4 months. […] During the 3-week period, the mice continued feeding HFD. […] The blood glucose levels were measured after an overnight fast, plasma insulin levels were tested after 5-6 hours fast, and the glycated HbA1c levels were determined in whole blood samples.
FIG. 15C and FIG. 15D show liver sections from mice fed HFD following 3 weeks of treatment with Compounds 25 and 64, respectively (P.O. dosing of 5 mg/kg, by daily gavage).
Experiments were similarly performed with other compounds, in either high-fat diet induced diabetes and fatty liver models, or in db/db mouse model, or in both, by daily oral gavage administration with low dosages.

[3] = test system: LX-2 cells (human hepatic stellate cells); assay: Inhibition of TGFβ-induced hepatic stellate cell differentiation into myofibroblast-like cells; format: cell-based; conditions: TGFβ 10 ng/ml; for minimal effective concentration: Homo sapiens, LX-2, hepatic stellate cell differentiation to myofibroblast-like cells, 24 hours, read-out: Minimal inhibitory concentration; for inhibition of TGFβ-induced hepatic stellate cell differentiation: in words
Experimental: Liver fibrosis is one hallmark of NASH. […] This process could be modeled in vitro using the hepatic stellate differentiation experiment. The human hepatic stellate LX-2 cells were cultured within DMEM (Dulbecco's Modified Eagle Media, pH 7.4) supplied with 2% fetal bovine serum, 4.5 g/l glucose and 2 mM glutamine to 100 percent confluence. […] Cellular morphology was then examined under a microscope. As shown in FIG. 16 to FIG. 17, hepatic stellate cells could be induced by TGF-beta to differentiate into myofibroblast-like cells.

C57Bl6 mice = assay: Determination of acute toxicity; conditions: in words
Experimental: Acute toxicity tests were performed on C57Bl6 mice, male, 6 weeks old, n=6. […] The tests were performed under fed condition, by oral gavage of 100-400 μL compound suspension according to the body weight to desired dosages (mg/kg). The mice were supplied with drinking water all through the testing time. […] MED was determined in diabetic and steatosis mouse models (Table 9).
Acute toxicity tests were performed on C57Bl6 mice, male, 6 weeks old, n=6 for each dose. […] The tests were performed under fed condition, by oral gavage of 100-400 μL compound suspension according to the body weight to desired dosages (mg/kg). The mice were supplied with drinking water all through the testing time. Mouse behaviors were monitored every 15-30 minutes.

[4] = Short-term (10-day) escalating toxicology study in CD-1 mice; format: in vivo, mouse; conditions: mouse, in vivo; oral gavage once daily, 10 days, male CD-1 mice; read-out: NOAEL (no-observable-adverse-effect-level)
Experimental: (§1) Clinical signs, body weights, food consumptions, rectal temperature, hematology, serum chemistry, plasma exposure, necropsies, tissue histopathology, were examined.
(§2) The compound was administered as a homogeneous suspension in 0.5% CMC+1% Tween80 in water in a volume of 10 mL/kg for oral administration. There were two arms in the study: 5 mice in the toxicology group and 5 mice in the toxicokinetic (TK) satellite group. Clinical signs were recorded twice daily. Body weight and food consumption were recorded once daily. Rectal temperature was recorded once every two days for a total of 5 times throughout the study. Necropsies were conducted at the termination of the study. Hematology, serum chemistry, plasma exposure, and tissue distribution were evaluated post 10th dosing in the TK satellite animals. Histopathology was examined in selected organs/tissues. Based on the outcomes of the toxicology parameters, NOAEL (no-observable-adverse-effect-level) and MTD (maximal tolerable dose) were determined.

CD-1 mice = assay: as above; format: in vivo, mouse; conditions: in words
Experimental: as §1, §2

Row | SMILES | minimal effective concentration (C2C12 cells) [µM] | effect on oxygen consumption rate (OCR) (C2C12 cells) | effect on mitochondrial membrane potential (MMP) [1] | reversing fatty liver (liver steatosis, H&E histology) [2] | minimal effective concentration [3] [µM] | inhibition of TGFβ-induced hepatic stellate cell differentiation [3] | inhibition of TGFβ-induced hepatic stellate cell differentiation ([3]; listed as Compound64) | acute toxicity profile over DNP (C57Bl6 mice) | NOAEL at 240 h [4] [mg/kg/day] | short-term safety profile over DNP (CD-1 mice) | reducing blood triglyceride levels and non-HDL cholesterol levels ([2]; 5 mg/kg/day gavage) | inhibition of TGFβ-induced hepatic stellate cell differentiation ([3]; listed as Compounds 25)
1 | COCCOCc1cc(C(F)(F)F)cc2sc(NC(=O)c3cc(Cl)cc(CN4C[C@@H](C)O[C@@H](C)C4)c3O)nc12 [Compound 64, 5-chloro-3-((cis-2,6-dimethylmorpholino)methyl)-2-hydroxy-N-(4-((2-methoxyethoxy)methyl)-6-(trifluoromethyl)benzo[d]thiazol-2-yl)benzamide] | < 5 | increases OCR | minor loss of MMP; also recorded: without significantly decreasing MMP over a wide concentration range; also recorded: without drastically dissipating mitochondrial membrane potential | highly efficacious in reversing fatty liver | 1 | effectively inhibit the differentiation process; also recorded: able to directly inhibit hepatic stellate cell (HSC) activation in vitro | prevents TGFβ-induced differentiation of LX-2 cells | drastically improved acute toxicity profiles over DNP | 40 | drastically improved short-term safety profiles | – | –
2 | COCCN(CCOC)Cc1cc(Cl)cc(C(=O)Nc2nc3ccc(C(F)(F)F)cc3s2)c1O [Compound 25, 3-((bis(2-methoxyethyl)amino)methyl)-5-chloro-2-hydroxy-N-(6-(trifluoromethyl)benzo[d]thiazol-2-yl)benzamide] | < 5 | very robust OCR induction at 3.0, 6.0, and 9.0 μM; also recorded: effectively uncouples mitochondria (induces OCR | does not cause observable MMP reduction; also recorded: does not appear to reduce MMP over a wide concentration range; also recorded: without reducing MMP | highly efficacious in reversing fatty liver | 7.5 | effectively inhibit the differentiation process; also recorded: prevents TGFβ-induced differentiation of LX-2 cells | – | drastically improved acute toxicity profiles over DNP | 50 | drastically improved short-term safety profiles | efficacious | able to directly inhibit hepatic stellate cell (HSC) activation in vitro
